Results from ChEMBL document CHEMBL1201862, “PubChem BioAssay data set” (2004).
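Method: 48-hour compound exposure of cells in 96-well plates, five concentrations, linear interpolation of endpoints. The concentration for 50% growth inhibition is given as GI50.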 The source made the active and inactive calls. No stated cut-off is given here; in the data, active = GI50 up to about 1.1 µM and inactive = higher.

Legend:
Test in all cases: inhibition of tumour cell growth, NCI panel, 48 h
SK-MEL-2 = tested on: SK-MEL-2
HOP-62 = tested on: HOP-62
SK-MEL-28 = tested on: SK-MEL-28
CAKI-1 = tested on: CAKI-1
OVCAR-8 = tested on: OVCAR-8
MCF7 = tested on: MCF7
NCI-H460 = tested on: NCI-H460
T47D = tested on: T47D
NCI-H226 = tested on: NCI-H226
K562 = tested on: K562
MOLT-4 = tested on: MOLT-4
OVCAR-3 = tested on: OVCAR-3
PC-3 = tested on: PC-3
A498 = tested on: A498
HCT-15 = tested on: HCT-15
TK-10 = tested on: TK-10
COLO 205 = tested on: COLO 205
UACC-257 = tested on: UACC-257
786-0 = tested on: 786-0
RPMI-8226 = tested on: RPMI-8226

SMILES | GI50 (SK-MEL-2) | GI50 (HOP-62) | GI50 (SK-MEL-28) | GI50 (CAKI-1) | GI50 (OVCAR-8) | GI50 (MCF7) | GI50 (NCI-H460) | GI50 (T47D) | GI50 (NCI-H226) | GI50 (K562) | GI50 (MOLT-4) | GI50 (OVCAR-3) | GI50 (PC-3) | GI50 (A498) | GI50 (HCT-15) [µM] | GI50 (TK-10) | GI50 (COLO 205) | GI50 (UACC-257) | GI50 (786-0) | GI50 (RPMI-8226)
Cc1nc2c(ccc3[nH]c4ccccc4c32)s1 | 19.9 µM (inactive) | 17.4 µM (inactive) | 21.1 µM (inactive) | 47.5 µM (inactive) | 30.1 µM (inactive) | 26.7 µM (inactive) | 20.6 µM (inactive) | 20.2 µM (inactive) | 14.8 µM (inactive) | 22.3 µM (inactive) | 12.6 µM (inactive) | 20.6 µM (inactive) | 17.7 µM (inactive) | 17.8 µM (inactive) | 18.8 | 29.5 µM (inactive) | 20.5 µM (inactive) | 35.6 µM (inactive) | 26.1 µM (inactive) | 
C=C(C)C1CC2(C)C(C)CC(OC(=O)/C(C)=C\C)CC2C(OC(=O)/C(C)=C\C)C1O (stereo not given) | > 100 µM (inactive) |  | > 100 µM (inactive) | 80.7 µM (inactive) | > 100 µM (inactive) | 41.2 µM (inactive) | 45.1 µM (inactive) | 43.2 µM (inactive) | > 100 µM (inactive) | > 10 µM (inactive) | 25.1 µM (inactive) |  | 46.6 µM (inactive) | > 100 µM (inactive) | 42 | > 100 µM (inactive) | 22.1 µM (inactive) | 89.1 µM (inactive) | > 100 µM (inactive) | 
O=C(NNC(=S)Nc1cccc(Cl)c1)c1cc(-c2ccccc2)nc2ccccc12 | 13.8 µM (inactive) | 16.3 µM (inactive) | 12.4 µM (inactive) | 19.3 µM (inactive) | 20.7 µM (inactive) | 10 µM (inactive) | 18.6 µM (inactive) | 14.9 µM (inactive) | 20 µM (inactive) | 20.7 µM (inactive) | 28 µM (inactive) | 15.1 µM (inactive) | 15.1 µM (inactive) |  | 14.6 | 15.4 µM (inactive) | 12.9 µM (inactive) | 15.7 µM (inactive) | 17.1 µM (inactive) | 6.68 µM (inactive)
CC(=O)N1C(Nc2ccccc2)CCN1c1ccccc1 (stereo not given) | > 10 µM (inactive) | > 10 µM (inactive) | > 10 µM (inactive) | 8.73 µM (inactive) | > 10 µM (inactive) | > 10 µM (inactive) | > 10 µM (inactive) | > 10 µM (inactive) | > 10 µM (inactive) | 4.04 µM (inactive) | 9.77 µM (inactive) | > 10 µM (inactive) | 4.01 µM (inactive) |  | 3.66 | > 10 µM (inactive) | > 10 µM (inactive) | > 10 µM (inactive) | > 10 µM (inactive) | > 10 µM (inactive)
CO[P@@]1(=O)O[C@@H](c2ccccc2)[C@H](O)[C@@]1(O)c1ccccc1 | > 100 µM (inactive) |  | > 100 µM (inactive) | > 100 µM (inactive) | > 100 µM (inactive) | > 100 µM (inactive) | > 100 µM (inactive) | > 100 µM (inactive) | > 100 µM (inactive) | > 100 µM (inactive) | 22.8 µM (inactive) | > 100 µM (inactive) | > 100 µM (inactive) | > 100 µM (inactive) | > 100 | > 100 µM (inactive) | > 100 µM (inactive) | > 100 µM (inactive) | > 100 µM (inactive) | 
CCCCCCCCCCOC1C(C(O)CNCCCN(C)C)OC2OC3(CCCCC3)OC21 (stereo not given) | 2.32 µM (inactive) | 1.75 µM (inactive) | 1.66 µM (inactive) | 1.75 µM (inactive) | 2.39 µM (inactive) | 2.07 µM (inactive) | 1.97 µM (inactive) | 2.75 µM (inactive) | 18.5 µM (inactive) | 1.63 µM (inactive) | 1.77 µM (inactive) | 1.96 µM (inactive) | 2.26 µM (inactive) |  | 1.69 | 3.21 µM (inactive) | 2 µM (inactive) | 4.05 µM (inactive) | 1.9 µM (inactive) | 1.94 µM (inactive)
CC(C)CC1NC(=O)C(C(C)C)NC(=O)CC(C)COC(=O)C(CC(C)C)N(C)C(=O)C(C(C)C)NC(=O)C(C(C)C)OC1=O (stereo not given) | 18.2 µM (inactive) | 15.2 µM (inactive) | > 50 µM (inactive) | 48.9 µM (inactive) | 34.7 µM (inactive) | > 50 µM (inactive) | > 50 µM (inactive) | > 50 µM (inactive) | 13 µM (inactive) | > 50 µM (inactive) | > 50 µM (inactive) | > 50 µM (inactive) | > 50 µM (inactive) | > 50 µM (inactive) | > 50 |  | > 50 µM (inactive) | > 50 µM (inactive) | 31.3 µM (inactive) | 
COc1ccc2cc1Oc1ccc(cc1)CC1c3cc(OC)c(cc3CCN1C)Oc1c(OC)c(OC)cc3c1C(C2)N(C)CC3 (stereo not given) | 12.8 µM (inactive) |  | 14.5 µM (inactive) | 11.2 µM (inactive) | 12.4 µM (inactive) | 14.6 µM (inactive) | 10.2 µM (inactive) | 9.93 µM (inactive) | 16.9 µM (inactive) | 7.94 µM (inactive) | 10.4 µM (inactive) |  | 11.9 µM (inactive) | 10.6 µM (inactive) | 9.06 | 10.8 µM (inactive) | 2.49 µM (inactive) | 6.75 µM (inactive) | 13.1 µM (inactive) | 
CC1=CC(=O)/C(=C/NC(=S)NCc2ccccc2)C(=O)O1 | > 100 µM (inactive) | > 100 µM (inactive) | > 100 µM (inactive) | > 100 µM (inactive) | > 100 µM (inactive) | > 100 µM (inactive) | > 100 µM (inactive) | > 100 µM (inactive) | > 100 µM (inactive) |  | 52.2 µM (inactive) | > 100 µM (inactive) | > 100 µM (inactive) | 43.9 µM (inactive) | > 100 | > 100 µM (inactive) | > 100 µM (inactive) | > 100 µM (inactive) | > 100 µM (inactive) | 
S=C(S)N1CCN(c2ccc(Cl)c(Cl)c2)CC1 | 17 µM (inactive) | 29.5 µM (inactive) | 25.4 µM (inactive) | 27.5 µM (inactive) | 46.9 µM (inactive) | 25.8 µM (inactive) |  | 16.6 µM (inactive) |  | 19.3 µM (inactive) |  | 21.3 µM (inactive) | 19.6 µM (inactive) | 18 µM (inactive) | 34.2 | 58.6 µM (inactive) | 18.2 µM (inactive) | > 10 µM (inactive) | 28.1 µM (inactive) | 19.5 µM (inactive)
CCN(CC)COC(=S)S | 1.82 µM (inactive) | 48.8 µM (inactive) | > 100 µM (inactive) | > 67 µM (inactive) | 42.4 µM (inactive) | > 100 µM (inactive) | 30.1 µM (inactive) | > 100 µM (inactive) | > 100 µM (inactive) | 38 µM (inactive) | 22.3 µM (inactive) | 0.0516 µM (active) | 33.3 µM (inactive) | > 100 µM (inactive) | > 100 | > 54 µM (inactive) | 78 µM (inactive) | 27.5 µM (inactive) | 33.3 µM (inactive) | 
